From patent US20040002477A1, “Erectile dysfunction remedies containing prostaglandin derivatives as the active ingredient” (priority 2000, published 2004)

How the values were obtained:
[1] = tested on: corpus cavernosum; assay: Corpus cavernosum relaxation activity in cats (norepinephrine-contracted isolated tissue, Magnus tube); format: cell-based; conditions: cat corpus cavernosum; for Corpus cavernosum relaxation rate: 10 μM norepinephrine contraction = 100%, Means ± SE
Method: Under anesthesia with urethane, penis of five cats (hybrid, weight about 3.5 kg) was removed. In the krebs solution, a corpus cavernosum was isorated, quartered and suspended with the tention of 200 mg in the Magnus tube. 10 μM norepinephrine was added and the tissue was constricted. Then the stable contraction was checked. After the addition of norepinephrine, (5Z, 9β, 11α, 13E)-17,17-propano-11,16-dihydroxy-9-chloro-20-norprosta-5,13-dienic acid·lysine salt (compound A) and (5Z, 9β, 11α, 13E)-17,17-propano-11,16-dihydroxy-9-chloroprosta-5,13,19-trienic acid (compound B), which are the compounds of the formula (I), were added respectively and the changes of the contraction were measured. As controls, PGE1 and 19-hydroxy-PGE2 were used. Each compounds were disolved in DMSO and used. The contraction induced by 10 μM norepinephrine was considered as 100% and the percentages of the relaxation rate were calculated.

[2] = tested on: human corpus cavernosum; assay: Corpus cavernosum relaxation activity in human (noradrenalin-contracted isolated tissue, Magnus tube); format: cell-based; conditions: for Corpus cavernosum relaxation rate: 10 μM noradrenalin contraction = 100%, added cumulatively, Means ± SE
Method: The samples of the human corpus cavernosum taken at the time of operative treatment in agreement of the patient were suspended with the tention of 500 mg in the Magnus tube fulled by glucose-added Krebs buffer. The 10^−5M (10 μM) noradrenalin-induced contraction reaction, acetylcholine-induced relaxation reaction and electrostimulation(EFS)-induced contraction reaction were checked and the samples responded normaly were used in the experiment. It was reconstricted by 10 μM noradrenalin, the compound A used in the present invention of the formula (I) (n=4), the compound B used in the present invention of the formula (I) (n=5) or PGE1 (n=5), which were disolved by DMSO, were added cumulatively and the relaxation reacton was recorded on the chart. The contraction induced by 10 μM noradrenaline was concidered as 100% and the percentage of the relaxation rate was calculated.

[3] = rat, in vivo, iv
Method: It has been confirmed that the compounds used in the present invention of the formula (I) have sufficiently low toxicity and are sufficiently safe for use as pharmaceutical preparations. For example, the maximal tolerated dose of the compound A (lysine salts) in the compound of the formula (I) was 30 mg/kg weight or more for rat intravenous administration.

| Compound | Corpus cavernosum relaxation rate ([1]; dose 0.3 μM) [%] | Corpus cavernosum relaxation rate ([1]; dose 1.0 μM) [%] | Potency relative to PGE1 [2] [times] | Corpus cavernosum relaxation rate ([2]; dose 1.0 μM) [%] | Corpus cavernosum relaxation rate ([2]; dose 10 μM) [%] | Intensity of relaxation compared with PGE1 [1] | Relaxation of corpus cavernosum, dose dependence [1] | Corpus cavernosum relaxation rate ([1]; dose 0.1 μM) [%] | Maximal tolerated dose [3] [mg/kg weight] |
| --- | --- | --- | --- | --- | --- | --- | --- | --- | --- |
| 19-hydroxy-PGE2 [reference compound] | 20.0 ± 4.2 | 27.2 ± 4.7 |  |  |  |  |  |  |  |
| C=CCC1(C(O)C/C=C/[C@@H]2[C@@H](C/C=C\CCCC(=O)O)[C@H](Cl)C[C@H]2O)CCC1 (stereo partly drawn) [Compound B, (5Z, 9β, 11α, 13E)-17,17-propano-11,16-dihydroxy-9-chloroprosta-5,13,19-trienic acid] |  | 36.8 ± 4.2 | 1.6 | 25.0 ± 4.4 | 45.3 ± 4.5 | at the same level as PGE1 | dose-dependent relaxasions | 18.1 ± 4.8 |  |
| CCC1(C(O)C/C=C/C2C(O)CC(Cl)C2C/C=C\CCCC(=O)O)CCC1.NCCCC[C@H](N)C(=O)O (stereo not drawn) [Compound A, (5Z, 9β, 11α, 13E)-17,17-propano-11,16-dihydroxy-9-chloro-20-norprosta-5,13-dienic acid·lysine salt] |  | 35.2 ± 2.8 | 1.6 | 29.9 ± 13.7 | 44.5 ± 12.6 | at the same level as PGE1 | dose-dependent relaxasions | 26.8 ± 4.2 | ≥ 30 |
| CCCCC[C@H](O)/C=C/[C@H]1[C@H](O)CC(=O)[C@@H]1CCCCCCC(=O)O [PGE1, prostaglandin E1, reference compound] |  | 35.5 ± 5.0 |  | 16.8 ± 7.2 | 27.9 ± 8.8 |  |  | 21.3 ± 2.3 |  |
